Experimental data taken from ChEMBL document CHEMBL4257451, “Synergism of fused bicyclic 2-aminothiazolyl compounds with polymyxin B against Klebsiella pneumoniae” (Medchemcomm, 2017).

What was measured:
Klebsiella pneumoniae [1] = experiment: Growth inhibition of Klebsiella pneumoniae SIPI-KPN-1712 by broth microdilution method; assay type: organism-based; conditions: in vitro
Klebsiella pneumoniae [2] = experiment: Synergistic antibacterial activity against Klebsiella pneumoniae SIPI-KPN-1712 assessed as fractional Inhibitory concentration index in presence of polymixin B at 2 ug/ml by broth microdilution method; assay type: functional
Klebsiella pneumoniae [3] = experiment: Synergistic antibacterial activity against Klebsiella pneumoniae SIPI-KPN-1712 assessed as polymixin B MIC at 4 ug/ml by broth microdilution method (reference value: 32 ug/ml); assay type: functional

SMILES | MIC (Klebsiella pneumoniae [1]) [µg/mL] | fractional inhibitory concentration index (FICI) (Klebsiella pneumoniae [2]) | MIC (Klebsiella pneumoniae [3]) [µg/mL]
O=C(OC1CCCc2nc(Nc3ccc(Cl)cn3)sc21)n1ccnc1 (stereo unspecified) | > 128 | 0.53 | 16
Cc1ccc(Nc2nc3c(s2)C(O)CCC3)cc1 (stereo unspecified) | > 128 | 1.03 | 32
O=C(OC1CCCc2nc(Nc3ccc(C(F)(F)F)cc3)sc21)n1ccnc1 (stereo unspecified) | > 128 | 0.53 | 16
COC1CCCc2nc(Nc3ccc([N+](=O)[O-])cc3)sc21 (stereo unspecified) | > 128 | 0.53 | 16
COC1CCCc2nc(Nc3cccnc3)sc21 (stereo unspecified) | > 128 | 0.53 | 16
COC1CCCc2nc(Nc3cccc(Cl)c3)sc21 (stereo unspecified) | > 128 | 0.28 | 8
COc1ccc(Nc2nc3c(s2)C(OC)CCC3)cc1 (stereo unspecified) | > 128 | 0.53 | 16
Clc1ccc(Nc2nc3ccccc3s2)cc1 | > 128 | 1.03 | 32
Cc1ccc(Nc2nc3c(s2)C(OC(=O)n2ccnc2)CCC3)cc1 (stereo unspecified) | > 128 | 1.03 | 32
CCOC1CCCc2nc(Nc3ccc(Cl)cc3)sc21 (stereo unspecified) | > 128 | 0.06 | 1
COC1CCCc2nc(Nc3ncccn3)sc21 (stereo unspecified) | > 128 | 0.53 | 16
OC1CCCc2nc(Nc3ccc(C(F)(F)F)cc3)sc21 (stereo unspecified) | > 128 | 0.53 | 16
O=C(OC1CCCc2nc(Nc3ccccc3)sc21)n1ccnc1 (stereo unspecified) | > 128 | 0.53 | 16
COC1CCCc2nc(Nc3cccc(F)c3)sc21 (stereo unspecified) | > 128 | 1.03 | 32
COC1CCCc2nc(Nc3cccc(Br)c3)sc21 (stereo unspecified) | > 128 | 0.53 | 16
CCOC1CCCc2nc(Nc3ccc4ccccc4n3)sc21 (stereo unspecified) | > 128 | 1.03 | 32

SMILES | MIC (Klebsiella pneumoniae [1]) [µg/mL] | fractional inhibitory concentration index (FICI) (Klebsiella pneumoniae [2]) | MIC (Klebsiella pneumoniae [3]) [µg/mL]
COC1CCCc2nc(Nc3ccc4ccccc4c3)sc21 (stereo unspecified) | > 128 | 1.03 | 32
O=C(OC1CCCc2nc(Nc3ccc(Cl)cc3)sc21)n1ccnc1 (stereo unspecified) | > 128 | 1.03 | 32
CCOC1CCCc2nc(Nc3ccc(Br)cc3)sc21 (stereo unspecified) | > 128 | 0.09 | 2
OC1CCCc2nc(Nc3ccc4ccccc4c3)sc21 (stereo unspecified) | > 128 | 0.53 | 16
CCCCOC1CCCc2nc(Nc3ccc(C)cc3)sc21 (stereo unspecified) | > 128 | 1.03 | 32
COC1CCCc2nc(Nc3cccc(C(F)(F)F)c3)sc21 (stereo unspecified) | > 128 | 0.53 | 16
COC1CCCc2nc(Nc3ccccc3)sc21 (stereo unspecified) | > 128 | 1.03 | 32
COC1CCCc2nc(Nc3ccc(C(C)(C)C)cc3)sc21 (stereo unspecified) | > 128 | 0.53 | 16
COC1CCCc2nc(Nc3ccc(I)cc3)sc21 (stereo unspecified) | > 128 | 0.53 | 16
COC1CCCc2nc(Nc3cccc(C)c3C)sc21 (stereo unspecified) | > 128 | 1.03 | 32
CCCOC1CCCc2nc(Nc3ccc(F)cc3)sc21 (stereo unspecified) | > 128 | 0.53 | 16
COC1CCCc2nc(Nc3ccc(C#N)cc3)sc21 (stereo unspecified) | > 128 | 0.53 | 16
COC1CCCc2nc(Nc3ccc(Cl)cn3)sc21 (stereo unspecified) | > 128 | 0.53 | 16
COC1CCCc2nc(Nc3ccc(Cl)cc3)sc21 (stereo unspecified) | > 128 | 0.06 | 1
COC1CCCc2nc(Nc3ccccc3Cl)sc21 (stereo unspecified) | > 128 | 1.03 | 32
O=C(OC1CCCc2nc(Nc3ccc(F)cc3)sc21)n1ccnc1 (stereo unspecified) | > 128 | 1.03 | 32
